Values quoted from earlier work, collected in patent US12630850B2, “Enzymatic break down of chlorogenic acid in sunflower-containing products” (Chapman University, priority 2022, dated 2026).

B1: L. gasseri: CGA esterase from the bacterium L. gasseri (Fritsch et al., 2017) (protein, listed as Lactobacillus gasseri)
chain: MKLKKKKVGIYMATITIERDGLNLVGTREEPFGEIYDMAIIFHGFTANRNTPLLKEIADELRDENIASVRFDFNGHGDSDGKFENMTVLNEIEDANAILNYVKTDPHVRNIYLVGHSQGGVVASMLAGLYPDIIKKVVLLAPAATLKTDALNGSTQGVKYNPDHIPDRLPFKDLTLGFYLRIAQQLPIYEVSVHFTRPVCLIHGANDTWSPDASKKYDQVYENSTLHLVEGADHSFTDTYQKTAADLTAEFLQDNNTF
B2: L. johnsonii: CGA esterase from L. johnsonii (Lai et al., 2009) (protein, listed as Lactobacillus johnsonii)
chain: MATTITLERDGLQLVGTREEPFGEIYDMAIIFHGFTANRNTSLLKEIANSLRDENIASVRFDFNGHGDSDGKFENMTVLNEIEDANAILNYVKTDPHVRNIYLVGHSQGGVVASMLAGLYPDLIKKVVLLAPAATLKSDALEGNTQGVTYNPDHIPDRLPFKDLTLGFYLRIAQQLPIYEVSAQFTKPVCLIHGTDDTWSPNASKKYDQIYQNSTLHLIEGADHCFSDSYQKNAVNLTTDFLQNNNAF

How the values were obtained:
[1] = Kabir et al., 2014; cited from earlier work
[2] = p-nitrophenyl acetate, between 20° C. and 40° C.; cited from earlier work
[3] = Lai et al., 2009; cited from earlier work

Molecule | pKa [1] | also measured
O=C(/C=C/c1ccc(O)c(O)c1)O[C@@H]1C[C@](O)(C(=O)O)C[C@@H](O)[C@H]1O [CGA, Chlorogenic acid] | 3.6 | –
O=C(O)/C=C/c1ccc(O)c(O)c1 [caffeic acid] | 4.5 | –
O=C(O)[C@]1(O)C[C@@H](O)[C@@H](O)[C@H](O)C1 [quinic acid] | 3.4 | –
B1 | – | Temperature-dependence of activity [2]: very weak temperature-dependence
B2 | – | Km [3]: 53 µM
